Patent publication US20100267561A1, “HERBICIDAL PYRIDAZINONE DERIVATIVES” (priority 2007, published 2010)

Experiments:
Assay type in all cases: in vivo
[1] = tested on: ducksalad (Heteranthera limosa); test: Test B flooded paddy test plant response
Summary of the method: (§1)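 Rice, umbrella sedge, ducksalad and barnyardgrass at 2-leaf stage; pots flooded to 3 cm, compounds applied into paddy water, depth held throughout. Greenhouse 13 to 15 days, then visual rating vs untreated controls on 0–100 scale (0 no effect, 100 complete control); dash means no test result.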

[2] = tested on: umbrella sedge (Cyperus difformis); test: Test B flooded paddy test plant response
Summary of the method: as §1

[3] = tested on: Italian ryegrass (Lolium multiflorum); test: Test C pre-/postemergence plant response; conditions: Preemergence
Excerpt: (§2) Seeds of plant species selected from annual bluegrass (Poa annua), blackgrass (Alopecurus myosuroides), canola (Brassica rapa), downy bromegrass (Bromus tectorum), green foxtail (Setaria viridis), Italian ryegrass (Lolium multiflorum), canarygrass (Phalaris minor), pigweed (Amaranthus retroflexus), spring barley (Hordeum vulgare), spring wheat (Triticum aestivum), wild mustard (Sinapis arvensis), wild oat (Avena fatua), windgrass (Apera spica-venti), winter barley (Hordeum vulgare), and winter wheat (Triticum aestivum) were planted and treated preemergence with test chemicals formulated in a non-phytotoxic solvent mixture which included a surfactant. At the same time, plants selected from these crop and weed species were treated with postemergence applications of some of the test chemicals formulated in the same manner. Plants ranged in height from 2 to 18 cm (1- to 4-leaf stage) for postemergence treatments.
(§3) Treated plants and controls were maintained in a controlled growth environment for 15 to 25 days after which time all species were compared to controls and visually evaluated. Plant response ratings, summarized in Table C, are based on a scale of 0 to 100 where 0 is no effect and 100 is complete control. A dash (-) response means no test result.

[4] = tested on: spring barley (Hordeum vulgare); test: Test C pre-/postemergence plant response; conditions: Preemergence
Excerpt: as §2, §3

[5] = tested on: pigweed (Amaranthus retroflexus); test: Test C pre-/postemergence plant response; conditions: Preemergence
Excerpt: as §2, §3

[6] = tested on: blackgrass (Alopecurus myosuroides); test: Test C pre-/postemergence plant response; conditions: Preemergence
Excerpt: as §2, §3

[7] = tested on: winter barley (Hordeum vulgare); test: Test C pre-/postemergence plant response; conditions: Preemergence
Excerpt: as §2, §3

[8] = tested on: annual bluegrass (Poa annua); test: Test C pre-/postemergence plant response; conditions: Preemergence
Excerpt: as §2, §3

[9] = tested on: windgrass (Apera spica-venti); test: Test C pre-/postemergence plant response; conditions: Preemergence
Excerpt: as §2, §3

[10] = tested on: spring wheat (Triticum aestivum); test: Test C pre-/postemergence plant response; conditions: Preemergence
Excerpt: as §2, §3

[11] = tested on: winter wheat (Triticum aestivum); test: Test C pre-/postemergence plant response; conditions: Preemergence
Excerpt: as §2, §3

wild oat (Avena fatua) = test: Test C pre-/postemergence plant response; conditions: Preemergence
Excerpt: as §2, §3

[12] = tested on: canarygrass (Phalaris minor); test: Test C pre-/postemergence plant response; conditions: Preemergence
Excerpt: as §2, §3

[13] = tested on: downy bromegrass (Bromus tectorum); test: Test C pre-/postemergence plant response; conditions: Preemergence
Excerpt: as §2, §3

[14] = tested on: green foxtail (Setaria viridis); test: Test C pre-/postemergence plant response; conditions: Preemergence
Excerpt: as §2, §3

[15] = Flood (flooded paddy test), 62 g ai/ha, scale 0 to 100, 0 no effect, 100 complete control
[16] = Flood (flooded paddy test), 125 g ai/ha, scale 0 to 100, 0 no effect, 100 complete control
[17] = Flood (flooded paddy test), 250 g ai/ha, scale 0 to 100, 0 no effect, 100 complete control
[18] = Flood, 31 g ai/ha, scale 0 to 100
[19] = 8 g ai/ha, scale 0 to 100 (0 no effect, 100 complete control)
[20] = 16 g ai/ha, scale 0 to 100 (0 no effect, 100 complete control)
[21] = 31 g ai/ha, scale 0 to 100 (0 no effect, 100 complete control)
[22] = 62 g ai/ha, scale 0 to 100, 0 no effect, 100 complete control

COC(=O)Oc1cnn(C)c(=O)c1-n1nc(-c2ccc(Cl)cc2)cc1C [Compound 33]
Plant response rating, Ducksalad [1, 15]: 0 | Plant response rating, Ducksalad [1, 16]: 40 | Plant response rating, Ducksalad [1, 17]: 50 | Plant response rating, Ducksalad [1, 18]: 0 | Plant response rating, Sedge, Umbrella [2, 15]: 20 | Plant response rating, Sedge, Umbrella [2, 16]: 35 | Plant response rating, Sedge, Umbrella [2, 17]: 60 | Plant response rating, Sedge, Umbrella [2, 18]: 0 | Plant response rating, Ryegrass, Italian [3, 19]: 10 | Plant response rating, Ryegrass, Italian [3, 20]: 65 | Plant response rating, Ryegrass, Italian [3, 21]: 100 | Plant response rating, Ryegrass, Italian [3, 22]: 100 | Plant response rating, Barley, Spring [4, 19]: 0 | Plant response rating, Barley, Spring [4, 20]: 0 | Plant response rating, Barley, Spring [4, 21]: 10 | Plant response rating, Barley, Spring [4, 22]: 25 | Plant response rating, Pigweed [5, 20]: 0 | Plant response rating, Pigweed [5, 21]: 0 | Plant response rating, Pigweed [5, 22]: 0 | Plant response rating, Blackgrass [6, 19]: 0 | Plant response rating, Blackgrass [6, 20]: 50 | Plant response rating, Blackgrass [6, 21]: 80 | Plant response rating, Blackgrass [6, 22]: 100 | Plant response rating, Barley, Winter [7, 19]: 0 | Plant response rating, Barley, Winter [7, 20]: 0 | Plant response rating, Barley, Winter [7, 21]: 0 | Plant response rating, Barley, Winter [7, 22]: 20 | Plant response rating, Bluegrass [8, 19]: 0 | Plant response rating, Bluegrass [8, 20]: 0 | Plant response rating, Bluegrass [8, 21]: 0 | Plant response rating, Bluegrass [8, 22]: 0 | Plant response rating, Windgrass [9, 19]: 0 | Plant response rating, Windgrass [9, 20]: 0 | Plant response rating, Windgrass [9, 22]: 50 | Plant response rating, Wheat, Spring [10, 19]: 0 | Plant response rating, Wheat, Spring [10, 20]: 0 | Plant response rating, Wheat, Spring [10, 21]: 20 | Plant response rating, Wheat, Spring [10, 22]: 50 | Plant response rating, Wheat, Winter [11, 19]: 0 | Plant response rating, Wheat, Winter [11, 20]: 0 | Plant response rating, Wheat, Winter [11, 21]: 15 | Plant response rating, Wheat, Winter [11, 22]: 40 | Plant response rating, Oat, Wild (wild oat (Avena fatua); [19]): 0 | Plant response rating, Oat, Wild (wild oat (Avena fatua); [20]): 25 | Plant response rating, Oat, Wild (wild oat (Avena fatua); [21]): 60 | Plant response rating, Oat, Wild (wild oat (Avena fatua); [22]): 75 | Plant response rating, Canarygrass [12, 19]: 0 | Plant response rating, Canarygrass [12, 20]: 10 | Plant response rating, Canarygrass [12, 21]: 65 | Plant response rating, Canarygrass [12, 22]: 90 | Plant response rating, Bromegrass, Downy [13, 19]: 0 | Plant response rating, Bromegrass, Downy [13, 20]: 35 | Plant response rating, Bromegrass, Downy [13, 21]: 35 | Plant response rating, Bromegrass, Downy [13, 22]: 60 | Plant response rating, Foxtail, Green [14, 19]: 15 | Plant response rating, Foxtail, Green [14, 20]: 95 | Plant response rating, Foxtail, Green [14, 21]: 100 | Plant response rating, Foxtail, Green [14, 22]: 100
